The values below come from ChEMBL document CHEMBL1201862, “PubChem BioAssay data set” (2004).

In test [1] the target is Peroxisome proliferator-activated receptor gamma/Nuclear receptor coactivator 2 (Homo sapiens, UniProt P37231). Put plainly: TR-FRET dose response biochemical High Throughput Screening assay for agonists of the steroid receptor coactivator 2 (SRC-2) recruitment by the peroxisome proliferator-activated receptor gamma (PPAR gamma): non-selective agonists. [Related pubchem assays: 1297, 1032 ]. Type of test: functional. (TR-FRET usually uses a lanthanide donor and a delayed reading to cut background.)

Test [2] deals with Peroxisome proliferator-activated receptor gamma/Nuclear receptor coactivator 3 (Homo sapiens, UniProt P37231). Put plainly: TR-FRET dose response biochemical High Throughput Screening assay for agonists of the steroid receptor coactivator 3 (SRC-3) recruitment by the peroxisome proliferator-activated receptor gamma (PPAR gamma): non-selective agonists. [Related pubchem assays: 1301 (Confirmation screen.), 1048 (Primary screen.)]. It is filed as functional.
Peroxisome proliferator-activated receptor gamma/Nuclear receptor coactivator 3, sequence (P37231 whole entry): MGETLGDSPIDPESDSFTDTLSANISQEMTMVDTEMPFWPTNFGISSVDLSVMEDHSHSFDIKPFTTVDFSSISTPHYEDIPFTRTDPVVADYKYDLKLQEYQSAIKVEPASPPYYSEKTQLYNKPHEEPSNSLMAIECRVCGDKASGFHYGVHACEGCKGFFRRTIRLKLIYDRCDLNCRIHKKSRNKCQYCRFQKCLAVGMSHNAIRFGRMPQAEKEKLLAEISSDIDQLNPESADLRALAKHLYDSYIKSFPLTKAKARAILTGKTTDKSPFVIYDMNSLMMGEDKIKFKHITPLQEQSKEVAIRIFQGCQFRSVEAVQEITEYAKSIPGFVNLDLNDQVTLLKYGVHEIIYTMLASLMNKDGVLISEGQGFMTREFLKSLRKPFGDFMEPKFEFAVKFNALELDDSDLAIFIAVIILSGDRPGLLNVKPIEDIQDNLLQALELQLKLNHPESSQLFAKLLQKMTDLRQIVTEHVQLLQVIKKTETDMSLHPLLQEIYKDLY
Peroxisome proliferator-activated receptor gamma/Nuclear receptor coactivator 3, sequence (Q9Y6Q9 whole entry, further chain): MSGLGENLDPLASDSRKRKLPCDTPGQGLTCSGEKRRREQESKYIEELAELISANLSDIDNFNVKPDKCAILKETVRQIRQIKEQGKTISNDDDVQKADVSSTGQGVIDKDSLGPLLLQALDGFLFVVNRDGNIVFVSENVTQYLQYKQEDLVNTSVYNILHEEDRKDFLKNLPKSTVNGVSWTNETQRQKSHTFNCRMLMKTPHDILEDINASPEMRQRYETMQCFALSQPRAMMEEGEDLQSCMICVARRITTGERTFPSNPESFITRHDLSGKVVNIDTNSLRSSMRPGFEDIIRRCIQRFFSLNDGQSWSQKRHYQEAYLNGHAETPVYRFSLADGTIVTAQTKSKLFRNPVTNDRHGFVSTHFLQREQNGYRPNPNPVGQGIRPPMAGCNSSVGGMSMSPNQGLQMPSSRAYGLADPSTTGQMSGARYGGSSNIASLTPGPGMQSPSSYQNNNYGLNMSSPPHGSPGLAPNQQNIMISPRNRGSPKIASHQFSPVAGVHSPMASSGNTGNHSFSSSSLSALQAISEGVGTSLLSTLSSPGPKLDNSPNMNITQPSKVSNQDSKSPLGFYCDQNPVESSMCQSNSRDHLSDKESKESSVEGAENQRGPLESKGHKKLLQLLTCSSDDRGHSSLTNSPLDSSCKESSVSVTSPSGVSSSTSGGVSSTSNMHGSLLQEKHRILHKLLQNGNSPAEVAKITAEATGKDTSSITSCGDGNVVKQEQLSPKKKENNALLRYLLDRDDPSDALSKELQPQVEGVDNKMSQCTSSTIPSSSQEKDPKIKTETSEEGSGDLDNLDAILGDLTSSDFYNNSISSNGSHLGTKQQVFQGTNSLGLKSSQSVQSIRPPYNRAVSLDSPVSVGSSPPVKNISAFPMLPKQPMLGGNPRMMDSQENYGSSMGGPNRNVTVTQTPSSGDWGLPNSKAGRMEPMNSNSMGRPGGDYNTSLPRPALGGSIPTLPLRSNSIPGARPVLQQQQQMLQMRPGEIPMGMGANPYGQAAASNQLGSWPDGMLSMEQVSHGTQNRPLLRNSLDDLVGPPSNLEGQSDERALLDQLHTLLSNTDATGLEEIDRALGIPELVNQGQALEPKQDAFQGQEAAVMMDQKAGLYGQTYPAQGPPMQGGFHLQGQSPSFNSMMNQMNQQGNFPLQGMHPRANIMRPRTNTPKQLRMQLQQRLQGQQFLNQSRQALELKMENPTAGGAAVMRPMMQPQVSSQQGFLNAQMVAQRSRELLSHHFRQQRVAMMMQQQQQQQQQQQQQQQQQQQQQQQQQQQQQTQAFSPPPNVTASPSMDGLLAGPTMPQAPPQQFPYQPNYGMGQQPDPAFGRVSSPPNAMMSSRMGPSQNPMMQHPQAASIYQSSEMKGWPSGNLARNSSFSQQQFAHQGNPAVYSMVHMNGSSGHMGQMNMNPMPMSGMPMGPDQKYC

Test [3] deals with Peroxisome proliferator-activated receptor gamma/Nuclear receptor coactivator 1 (Homo sapiens, UniProt P37231). Put plainly: TR-FRET dose response biochemical High Throughput Screening assay for agonists of the steroid receptor coactivator 1 (SRC-1) recruitment by the peroxisome proliferator-activated receptor gamma (PPAR gamma): non-selective agonists. [Related pubchem assays (depositor defined):AID1300, AID1808, AID504735, AID631]. It is filed as protein assay.
Peroxisome proliferator-activated receptor gamma/Nuclear receptor coactivator 1, sequence (P37231 whole entry): as the sequence (P37231 whole entry) above
Peroxisome proliferator-activated receptor gamma/Nuclear receptor coactivator 1, sequence (Q15788 whole entry, further chain): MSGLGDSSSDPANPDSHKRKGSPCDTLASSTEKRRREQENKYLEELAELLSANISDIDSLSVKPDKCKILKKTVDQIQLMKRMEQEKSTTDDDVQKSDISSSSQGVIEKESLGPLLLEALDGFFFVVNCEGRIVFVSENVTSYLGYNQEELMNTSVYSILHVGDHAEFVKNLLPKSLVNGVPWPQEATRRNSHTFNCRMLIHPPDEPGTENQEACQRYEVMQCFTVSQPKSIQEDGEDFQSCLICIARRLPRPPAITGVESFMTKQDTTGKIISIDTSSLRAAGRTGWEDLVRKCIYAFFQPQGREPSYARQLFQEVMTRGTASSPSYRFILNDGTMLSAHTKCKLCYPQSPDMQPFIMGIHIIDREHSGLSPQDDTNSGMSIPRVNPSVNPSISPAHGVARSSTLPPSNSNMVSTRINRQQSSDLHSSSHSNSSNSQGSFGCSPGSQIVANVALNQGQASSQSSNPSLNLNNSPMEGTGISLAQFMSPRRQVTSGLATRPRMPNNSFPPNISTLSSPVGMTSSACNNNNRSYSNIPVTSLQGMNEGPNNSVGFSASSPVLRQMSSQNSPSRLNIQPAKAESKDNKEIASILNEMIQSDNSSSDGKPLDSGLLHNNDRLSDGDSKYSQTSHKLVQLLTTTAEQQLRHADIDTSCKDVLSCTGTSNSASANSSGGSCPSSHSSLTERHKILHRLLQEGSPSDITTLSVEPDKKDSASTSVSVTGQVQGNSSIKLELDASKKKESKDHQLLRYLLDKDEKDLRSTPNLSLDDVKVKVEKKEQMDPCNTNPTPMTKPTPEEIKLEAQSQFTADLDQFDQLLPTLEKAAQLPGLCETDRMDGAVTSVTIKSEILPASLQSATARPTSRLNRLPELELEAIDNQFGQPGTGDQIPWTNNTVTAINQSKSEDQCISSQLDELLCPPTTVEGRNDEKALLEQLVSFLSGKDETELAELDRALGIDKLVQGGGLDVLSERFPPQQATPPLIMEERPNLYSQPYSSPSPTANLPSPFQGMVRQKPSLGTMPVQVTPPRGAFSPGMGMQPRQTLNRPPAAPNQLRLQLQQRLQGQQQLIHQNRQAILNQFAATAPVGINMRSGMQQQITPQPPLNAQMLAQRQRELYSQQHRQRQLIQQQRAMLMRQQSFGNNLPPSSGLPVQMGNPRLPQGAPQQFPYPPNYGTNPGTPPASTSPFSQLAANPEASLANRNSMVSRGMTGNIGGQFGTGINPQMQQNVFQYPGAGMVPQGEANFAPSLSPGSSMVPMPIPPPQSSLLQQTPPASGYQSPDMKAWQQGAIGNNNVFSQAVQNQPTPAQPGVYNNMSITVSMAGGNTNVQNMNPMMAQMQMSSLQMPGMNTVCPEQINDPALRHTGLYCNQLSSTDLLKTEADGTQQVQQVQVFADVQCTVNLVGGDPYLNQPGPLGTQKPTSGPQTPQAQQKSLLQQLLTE

Test [4] concerns T-cell. Briefly: loss of vesicle association with mouse CD8+ T cells – mouse 2C CD8+ T cells, flow cytometry, dose response (AID 485284). Type of test: functional. In general terms: Flow cytometry measures light scatter and fluorescence of single cells or particles in a stream.
The target in test [5] is Coagulation factor XII (Homo sapiens, UniProt P00748). It is filed as functional.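 Also: activated factor XIIa alpha cleaving a fluorogenic AMC peptide substrate; inhibitor potency from loss of enzyme activity.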
Coagulation factor XII, sequence (P00748 20-372 limits assumed): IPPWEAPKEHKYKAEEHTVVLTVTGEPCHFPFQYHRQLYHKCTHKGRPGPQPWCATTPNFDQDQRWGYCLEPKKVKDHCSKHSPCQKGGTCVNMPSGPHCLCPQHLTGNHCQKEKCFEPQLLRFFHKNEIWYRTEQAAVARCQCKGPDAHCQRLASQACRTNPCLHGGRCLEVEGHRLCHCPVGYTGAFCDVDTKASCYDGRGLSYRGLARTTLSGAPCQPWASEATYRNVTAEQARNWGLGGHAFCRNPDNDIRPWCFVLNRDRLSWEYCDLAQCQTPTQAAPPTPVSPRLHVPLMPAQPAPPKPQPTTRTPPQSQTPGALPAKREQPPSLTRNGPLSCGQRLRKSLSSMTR
Coagulation factor XII, sequence (P00748 373-615 limits assumed): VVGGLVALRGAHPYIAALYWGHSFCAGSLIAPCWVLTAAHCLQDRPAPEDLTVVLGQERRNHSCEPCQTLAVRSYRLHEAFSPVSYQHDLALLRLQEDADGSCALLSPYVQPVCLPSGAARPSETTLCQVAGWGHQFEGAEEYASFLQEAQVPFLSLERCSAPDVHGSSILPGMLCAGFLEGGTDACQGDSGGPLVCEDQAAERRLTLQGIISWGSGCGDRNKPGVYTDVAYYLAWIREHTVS
The target of test [6] is Prothrombin (Homo sapiens, UniProt P00734). Briefly: Thrombin 1536 HTS Dose Response Confirmation. [Related pubchem assays: 1046 (Thrombin 1536 HTS; hits were confirmed in this assay)]. It is filed as functional.
Test [7] concerns the target T1, Tyrosine-protein phosphatase non-receptor type 7 (Homo sapiens, UniProt P35236).
T1 sequence (P35236 whole entry): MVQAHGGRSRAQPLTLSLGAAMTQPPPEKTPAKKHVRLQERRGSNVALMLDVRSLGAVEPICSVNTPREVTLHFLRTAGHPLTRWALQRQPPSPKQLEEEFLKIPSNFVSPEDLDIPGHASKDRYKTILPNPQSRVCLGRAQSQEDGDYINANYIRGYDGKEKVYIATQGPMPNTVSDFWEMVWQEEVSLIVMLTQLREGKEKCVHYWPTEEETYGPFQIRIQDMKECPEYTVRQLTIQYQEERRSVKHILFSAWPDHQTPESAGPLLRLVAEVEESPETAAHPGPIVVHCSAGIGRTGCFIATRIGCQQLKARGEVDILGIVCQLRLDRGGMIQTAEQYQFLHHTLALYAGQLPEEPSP
It is filed as functional.

Test [8] has as its target T2, Tyrosine-protein phosphatase non-receptor type 22 (Homo sapiens, UniProt Q9Y2R2).
T2 sequence (Q9Y2R2 whole entry): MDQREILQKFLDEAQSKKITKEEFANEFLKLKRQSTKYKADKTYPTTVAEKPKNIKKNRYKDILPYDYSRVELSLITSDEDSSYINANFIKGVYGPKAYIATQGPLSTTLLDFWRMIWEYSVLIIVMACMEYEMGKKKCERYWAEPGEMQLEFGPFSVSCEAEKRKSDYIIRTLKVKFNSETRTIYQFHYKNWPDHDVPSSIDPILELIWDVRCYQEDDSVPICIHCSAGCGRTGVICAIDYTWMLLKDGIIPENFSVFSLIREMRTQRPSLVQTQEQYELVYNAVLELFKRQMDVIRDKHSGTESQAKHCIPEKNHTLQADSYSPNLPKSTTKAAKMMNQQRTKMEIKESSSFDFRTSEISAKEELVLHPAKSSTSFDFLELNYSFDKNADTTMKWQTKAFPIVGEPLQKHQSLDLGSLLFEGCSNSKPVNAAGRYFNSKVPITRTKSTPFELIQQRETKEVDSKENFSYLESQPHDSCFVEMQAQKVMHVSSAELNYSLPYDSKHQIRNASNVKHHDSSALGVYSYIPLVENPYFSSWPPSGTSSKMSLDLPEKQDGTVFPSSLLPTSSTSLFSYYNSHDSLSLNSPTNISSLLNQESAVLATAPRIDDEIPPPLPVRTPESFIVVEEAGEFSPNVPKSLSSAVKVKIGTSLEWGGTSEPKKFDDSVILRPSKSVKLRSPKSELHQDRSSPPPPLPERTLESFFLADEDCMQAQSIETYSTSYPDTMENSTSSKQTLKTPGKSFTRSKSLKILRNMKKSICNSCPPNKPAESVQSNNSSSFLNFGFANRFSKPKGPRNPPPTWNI
Type of test: functional.

The target in test [9] is T2, Tyrosine-protein phosphatase non-receptor type 22. Type of test: functional. This is another data set of the same source.
In test [10] the target is Troponin, cardiac muscle (Homo sapiens, UniProt P19429+P45379+P63316). Briefly: Fluorescence-based biochemical high throughput dose response assay for activators of the calcium sensitivity of cardiac Regulated Thin Filaments (RTF). [Related pubchem assays (depositor defined):AID493008, AID493018, AID504382, AID504383]. Type of test: protein-complex assay.

Active and inactive are the calls of the source. A value given as a limit tells only on which side of the number the result lay.

With `Cc1ccccc1Nc1nc(-c2ccccc2)c(C(=O)Nc2cccnc2)s1`, the results for the EC50 in test [1], in test [2] and in [3] were 11.6 µM (not active), > 79.4 µM (not active) and 12.6 µM (inactive), respectively.
`COc1ccc(C2=CC(=O)C[C@H](c3ccc4c(c3)OCO4)C2)cn1`: in [4], the EC50 is 19.9 µM (active).
Regarding `COCCNC(=S)NN=C1CCCCCC1`, the IC50 in [5] is > 50 µM (inactive); in [6], > 50 µM (not active).
Consider `CSc1nsc(SCC(=O)Nc2cccc(C(C)=O)c2)n1`, for which the IC50 in test [7], in test [8] and in [9] was > 79.4 µM (inactive) throughout.
In the case of `CCOC(=O)N1CCN(C(S)=Nc2ccccc2C)CC1`, in test [10], the EC50 was > 71.4 µM (inactive).

The EC50 is the concentration giving half of the maximal effect. One may read the IC50 as the point on the concentration scale where inhibition reaches its midpoint.
